# Results reported in US9290459B1, “Substituted bicyclic dihydropyrimidinones and their use as inhibitors of neutrophil elastase activity” (Boehringer Ingelheim International GmbH, priority 2013, dated 2016).
# Read-outs that look alike come from different tables or passages of the source.
# What was measured:
# Caco-2 cells = test: Drug transport across human Caco-2 cells; assay type: in vitro ADME; conditions: for PEAB / PEBA: Caco-2 monolayers, pH 7.2, 37° C.; for PEAB: apical-to-basal; for PEBA: basal-to-apical; for Efflux ratio: PEBA/PEAB, Caco-2
# [1] = Metabolic stability with human liver microsomes; assay type: in vitro ADME; conditions: for half-life at 1 μM: pH 7.6
# [2] = target: neutrophil elastase in human plasma (Homo sapiens (Human), UniProt P08246); test: Neutrophil elastase inhibitory activity in human plasma (zymosan-stimulated blood); assay type: biochemical
# neutrophil elastase in human plasma, sequence (P08246 30-247): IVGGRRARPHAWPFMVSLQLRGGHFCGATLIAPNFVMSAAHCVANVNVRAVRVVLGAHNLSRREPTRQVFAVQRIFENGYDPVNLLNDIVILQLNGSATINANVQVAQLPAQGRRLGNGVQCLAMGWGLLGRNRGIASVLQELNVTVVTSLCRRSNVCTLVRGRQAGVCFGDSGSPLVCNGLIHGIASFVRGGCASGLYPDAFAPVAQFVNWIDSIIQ
# Aqueous solubility = assay type: physicochemical; conditions: McIlvaine buffer pH 6.8, 2.5% DMSO, 24 h shaking; for solubility at 24 h: McIlvaine buffer pH 6.8 with 2.5% DMSO, pH 6.8, aqueous buffer, kinetic from dmso stock
# Protocol: Assay for Determination of Aqueous Solubility […] After 24 h of shaking, the solutions or suspensions are filtered and analyzed by LC-UV. The amount dissolved in buffer is compared to the amount dissolved in the acetonitrile/water (1/1) solution.
# [3] = target: Human neutrophil elastase (Homo sapiens (Human), UniProt P08246); test: Human Neutrophil Elastase Assay; assay type: biochemical; conditions: substrate MeOSuc-Ala-Ala-Pro-Val-AMC 250 μM, pH 7.5
# Human neutrophil elastase, sequence (P08246 30-247): as above
# [4] = Drug transport across human Caco-2 cells; assay type: in vitro ADME; conditions: human; for Papp B→A at 10 µM / Papp A→B at 10 µM: Caco-2, pH 7.2, Caco-2 monolayers, pH 7.2, 37° C.; for Papp B→A at 10 µM: basal-to-apical, read-out: PEBA; for efflux ratio at 10 μM: Caco-2, pH 7.2, PEBA/PEAB, Caco-2; for Papp A→B at 10 µM: apical-to-basal, read-out: PEAB
# human hepatocytes = test: Metabolic stability with human hepatocytes; assay type: in vitro ADME; conditions: human hepatocyte suspension, 1 μM test compound, scaled with well stirred model
# Protocol: Assay for the Determination of Metabolic Stability with Human Hepatocytes The metabolic degradation of the test compound is assayed in a human hepatocyte suspension. Human hepatocytes (typically cryopreserved) are incubated in an appropriate buffer system (e.g. […] Samples are transferred into acetonitrile and pelleted by centrifugation (5 min) The supernatant is transferred to a new 96-deepwell plate, evaporated under nitrogen and resuspended. The decline of parent compound is analyzed by LC-MS/MS.
# [5] = pooled human liver microsomes, 1 mg/ml protein, 1 μM test compound, 37° C., NADPH
# [6] = EC50, neutrophil elastase enriched human plasma from zymosan-stimulated blood
# [7] = IC50, human neutrophil elastase
# [8] = human neutrophil elastase, read-out: IC50
# [9] = neutrophil elastase enriched human plasma from zymosan-stimulated blood, read-out: EC50
Papp B→A at 10 µM [4] [×10⁻⁶ cm/s],efflux ratio at 10 μM [4],solubility at 24 h (Aqueous solubility) [µg/mL],CL (predicted human hepatic in vivo blood clearance) (human hepatocytes) [mL/min/kg],Papp A→B at 10 µM [4] [×10⁻⁶ cm/s],"half-life at 1 μM ([1]; human, microsomes) [h]","IC50 [3, 8] [nM]",Compound,also measured
71.4,5.9,65,,,,,"CN1C(=O)N(c2cccc(C(F)(F)F)c2)C2=C(C(=O)CC2)C1c1ccc(C#N)cc1[S+](C)[O-] (single isomer, unassigned) [Example 30B, 4-(3-Methyl-2,5-dioxo-1-(3-(trifluoromethyl)phenyl)-2,3,4,5,6,7-hexahydro-1H-cyclopenta[d]pyrimidin-4-yl)-3-(methylsulfinyl)benzonitrile]","PEAB (Caco-2 cells): 12 ×10⁻⁶ cm/s; half-life at 1 μM ([1]; pooled human liver microsomes, 1 mg/ml protein, 1 μM test compound, 37° C., NADPH, read-out: t1/2 INVITRO): > 2.17 h; EC50 [2, 6]: 2 nM; IC50 [3, 7]: 2 nM"
78,2,21,0,39.7,> 2.17,,N#Cc1ccc(C2C3=C(CCC3=O)N(c3cccc(C(F)(F)F)c3)C(=O)N2C(=O)N[C@H]2CCC[C@@H]2O)cc1 (stereo partly shown) [Example 42.4],
,,67,5,,,,N#Cc1ccc(C2C3=C(CCC3=O)N(c3cccc(C(F)(F)F)c3)C(=O)N2C(=O)N[C@H]2COC[C@H]2O)cc1 (stereo partly shown) [Example 42.6],
,,56,0,,> 2.17,,N#Cc1ccc([C@@H]2C3=C(CCC3=O)N(c3cccc(C(F)(F)F)c3)C(=O)N2C(=O)N[C@H]2COC[C@@H]2O)cc1 [Example 45.5],
,,32,0,,> 2.17,,CS(=O)(=O)CCNC(=O)N1C(=O)N(c2cccc(C(F)(F)F)c2)C2=C(C(=O)CC2)C1c1ccc(C#N)cc1F (stereo not shown) [Example 49.3],
66.1,1,41,1,66.7,,4,CNC(=O)N1C(=O)N(c2cccc(C(F)(F)F)c2)C2=C(C(=O)CC2)C1c1ccc(C#N)cn1 (stereo not shown) [Example 50.1],"EC50 [2, 9]: 16 nM"
80.3,1.1,16,3,70.8,> 2.17,< 1,CCNC(=O)N1C(=O)N(c2cccc(C(F)F)c2)C2=C(C(=O)CC2)C1c1ccc(C#N)cc1 (stereo not shown) [Example 52.2],"EC50 [2, 9]: 1 nM"
62.7,14.1,70,,4.45,> 2.17,< 1,CC(C)(O)CNC(=O)N1C(=O)N(c2cccc(C(F)F)c2)C2=C(C(=O)CC2)C1c1ccc(C#N)cc1 (stereo not shown) [Example 52.5],"EC50 [2, 9]: 1 nM"
,,88,8,,> 2.17,< 1,"N#Cc1ccc([C@@H]2C3=C(CCC3=O)N(c3cccc(C(F)F)c3)C(=O)N2C(=O)NCCCO)cc1 [Example 52A, (R)-4-(4-Cyanophenyl)-1-(3-(difluoromethyl)phenyl)-N-(3-hydroxypropyl)-2,5-dioxo-4,5,6,7-tetrahydro-1H-cyclopenta[d]pyrimidine-3(2H)-carboxamide]","EC50 [2, 9]: < 1 nM"
,,34,0,,,,CS(=O)(=O)c1cc(C#N)ccc1C1C2=C(CCC2=O)N(c2cccc(C(F)F)c2)C(=O)N1C(=O)NC1CC1 (stereo not shown) [Example 53.3],
94.4,,14,0,9.85,> 2.17,,CC(C)NC(=O)N1C(=O)N(c2cccc(C(F)F)c2)C2=C(C(=O)CC2)C1c1ccc(C#N)cc1S(C)(=O)=O (stereo not shown) [Example 53.4],

# The next lines start with the compound.
Compound,Papp B→A at 10 µM [4] [×10⁻⁶ cm/s],efflux ratio at 10 μM [4],solubility at 24 h (Aqueous solubility) [µg/mL],CL (predicted human hepatic in vivo blood clearance) (human hepatocytes) [mL/min/kg],Papp A→B at 10 µM [4] [×10⁻⁶ cm/s],"half-life at 1 μM ([1]; human, microsomes) [h]","IC50 [3, 8] [nM]",also measured
"CN1C(=O)N(c2cccc(C(F)(F)F)c2)C2=C(C(=O)CC2)C1c1ccc(C#N)cc1[S+](C)[O-] (single isomer, unassigned) [Example 30A, 4-(3-Methyl-2,5-dioxo-1-(3-(trifluoromethyl)phenyl)-2,3,4,5,6,7-hexahydro-1H-cyclopenta[d]pyrimidin-4-yl)-3-(methylsulfinyl)benzonitrile]",,,,,,,,"PEAB (Caco-2 cells): 3.52 ×10⁻⁶ cm/s; PEBA (Caco-2 cells): 39 ×10⁻⁶ cm/s; Efflux ratio (Caco-2 cells): 11.1; t1/2 INVITRO [1, 5]: >2.17 h; EC50 [2, 6]: 1 nM; Aqueous solubility (Aqueous solubility): 51 µg/mL; IC50 [3, 7]: 1.3 nM"
CN(C)C(=O)CN1C(=O)N(c2cccc(C(F)(F)F)c2)C2=C(C(=O)CC2)C1c1ccc(C#N)cc1 (stereo not shown) [Example 6.2],,,,6,,,,Aqueous solubility (Aqueous solubility): 77 µg/mL
N#Cc1ccc(C2C3=C(CCC3=O)N(c3cccc(C(F)(F)F)c3)C(=O)N2CC(=O)N2CCC2)cc1 (stereo not shown) [Example 6.3],,,,4,,,,"t1/2 INVITRO [1, 5]: >2.17 h; Aqueous solubility (Aqueous solubility): 121 µg/mL"
"CNC(=O)N1C(=O)N(c2cccc(C(F)(F)F)c2)C2=C(C(=O)CC2)[C@H]1c1ccc(C#N)cc1 [Example 7.1A, (R)-4-(4-Cyanophenyl)-N-methyl-2,5-dioxo-1-(3-(trifluoromethyl)phenyl)-4,5,6,7-tetrahydro-1H-cyclopenta[d]pyrimidine-3(2H)-carboxamide]",68.1,,23,3,72.7,> 2.17,,
"N#Cc1ccc([C@@H]2C3=C(CCC3=O)N(c3cccc(C(F)(F)F)c3)C(=O)N2C(=O)NCCO)cc1 [Example 7.2A, (R)-4-(4-Cyanophenyl)-N-(2-hydroxyethyl)-2,5-dioxo-1-(3-(trifluoromethyl)phenyl)-4,5,6,7-tetrahydro-1H-cyclopenta[d]pyrimidine-3(2H)-carboxamide]",63.3,,72,0,4.03,> 2.17,,
"CCS(=O)(=O)c1cc(C#N)ccc1C1NC(=O)N(c2cccc(C(F)(F)F)c2)C2=C1C(=O)CC2 (stereo not shown) [Example 14, 4-(2,5-Dioxo-1-(3-(trifluoromethyl)phenyl)-2,3,4,5,6,7-hexahydro-1H-cyclopenta[d]pyrimidin-4-yl)-3-(ethylsulfonyl)benzonitrile]",,,45,4,,> 2.17,4.7,
"CS(=O)(=O)c1cc(C#N)ccc1C1NC(=O)N(c2cccc(C(F)F)c2)C2=C1C(=O)CC2 (stereo not shown) [Example 15.4, 4-(1-(3-(difluoromethyl)phenyl)-2,5-dioxo-2,3,4,5,6,7-hexahydro-1H-cyclopenta[d]pyrimidin-4-yl)-3-(methylsulfonyl)benzonitrile]",,,69,0,,> 2.17,9.7,
"CS(=O)(=O)c1cc(C#N)ccc1[C@@H]1C2=C(CCC2=O)N(c2cccc(C(F)(F)F)c2)C(=O)N1CC#N [Example 23, (S)-4-(3-(Cyanomethyl)-2,5-dioxo-1-(3-(trifluoromethyl)phenyl)-2,3,4,5,6,7-hexahydro-1H-cyclopenta[d]pyrimidin-4-yl)-3-(methylsulfonyl)benzonitrile]",93.5,9.1,15,0,10.3,> 2.17,3.4,"EC50 [2, 9]: < 1 nM"
"CN1C(=O)N(c2cccc(C(F)(F)F)c2)C2=C(C(=O)CC2)[C@H]1c1ccc(C#N)cc1S(C)(=O)=O [Example 25, (S)-4-(3-Methyl-2,5-dioxo-1-(3-(trifluoromethyl)phenyl)-2,3,4,5,6,7-hexahydro-1H-cyclopenta[d]pyrimidin-4-yl)-3-(methylsulfonyl)benzonitrile]",74,1.3,62,2,56.7,> 2.17,< 1,"EC50 [2, 9]: 1 nM"
N#Cc1ccc(C2C3=C(CCC3=O)N(c3cccc(C(F)(F)F)c3)C(=O)N2C(=O)NC2(CO)CC2)cc1 (stereo not shown) [Example 41.5],,,,,,,,PEAB (Caco-2 cells): 8.85 ×10⁻⁶ cm/s; PEBA (Caco-2 cells): 77 ×10⁻⁶ cm/s; Efflux ratio (Caco-2 cells): 8.7; Aqueous solubility (Aqueous solubility): 82 µg/mL
N#Cc1ccc(C2C3=C(CCC3=O)N(c3cccc(C(F)(F)F)c3)C(=O)N2C(=O)NC2CCOCC2)cc1 (stereo not shown) [Example 41.16],,,,,,,,"PEAB (Caco-2 cells): 58.9 ×10⁻⁶ cm/s; PEBA (Caco-2 cells): 57.7 ×10⁻⁶ cm/s; Efflux ratio (Caco-2 cells): 1.0; t1/2 INVITRO [1, 5]: >2.17 h"
